# Measurements taken from patent US20070161644A1, “Erastin analogs and uses thereof” (priority 2005, published 2007).
# Columns and labels:
# Assay in all cases: Calcein AM viability assay, dilution series
# Assay type in all cases: cell-based, human
# Conditions in all cases: 50% inhibition of calcein AM staining; 16-point two-fold dilution; two days
# [1] = tested on: BJ-TERT/LT/ST/RAS^V12 cells
# Method: Described here is work carried out to identify compounds with increased potency or activity in the presence of hTERT, LT, ST, E6, E7 or RAS^V12. Although the work described herein made use of hTERT, LT, ST, E6, E7 and RAS^V12 as transforming genes, future studies can make use of a wide variety of cancer-associated alleles using this methodology in order to define the signaling networks that involve many oncogenes and tumor suppressors. […] Cell viability was measured using the dye calcein acetoxymethyl ester (calcein AM) (Wang et al., 1993, Hum. Immunol. 37, 264-270), which is a non-fluorescent compound that freely diffuses into cells. […]
# Calcein acetoxylmethyl ester (AM) is a cell membrane-permeable, non-fluorescent compound that is cleaved by intracellular esterases to form the anionic, cell-impermeable, fluorescent compound calcein. […] Total fluorescence intensity in each well was recorded on a Packard Fusion platereader, and converted to a percent inhibition of signal by subtracting the instrument background and dividing by the average signal obtained when cells were not treated with any compound. […]
# Mean RFU (relative fluorescence units) for untreated cells was calculated by averaging columns 1, 2, and 23 (wells with cells but lacking compounds). The calcein background was calculated by averaging column 24 (wells with calcein, but lacking cells). […]
# BJ-TERT/LT/ST cells = tested on: BJ-TERT/LT/ST cells
# From the text: (§1) Described here is work carried out to identify compounds with increased potency or activity in the presence of hTERT, LT, ST, E6, E7 or RAS^V12. Although the work described herein made use of hTERT, LT, ST, E6, E7 and RAS^V12 as transforming genes, future studies can make use of a wide variety of cancer-associated alleles using this methodology in order to define the signaling networks that involve many oncogenes and tumor suppressors. Engineered cell lines with these genetic elements were used to screen 23,550 compounds, including 20,000 compounds from a combinatorial library, 1,990 compounds from the National Cancer Institute diversity collection, and 1,540 biologically active known compounds that were selected and purchased by Applicant and formatted into a screenable collection. The primary screen tested (in quadruplicate) the effect of treating tumorigenic BJ-TERT/LT/ST/RAS^V12 engineered tumorigenic cells with each compound for 48 hours at a concentration of 4 μg/mL, corresponding to 10 μM for a compound with a molecular weight of 400, which is the approximate median molecular weight of the libraries. Cell viability was measured using the dye calcein acetoxymethyl ester (calcein AM) (Wang et al., 1993, Hum. Immunol. 37, 264-270), which is a non-fluorescent compound that freely diffuses into cells. In live cells, calcein AM is cleaved by intracellular esterases, forming the anionic fluorescent derivative calcein, which cannot diffuse out of live cells. […] The IC50 value (concentration required to inhibit 50% of the calcein AM signal) was calculated for each compound in each cell line (Table 1). […] Following is a more detailed analysis of these nine compounds.
# (§2) Calcein acetoxylmethyl ester (AM) is a cell membrane-permeable, non-fluorescent compound that is cleaved by intracellular esterases to form the anionic, cell-impermeable, fluorescent compound calcein. Viable cells are stained by calcein because of the presence of intracellular esterases and because the intact plasma membrane prevents fluorescent calcein from leaking out of cells (Wang et al., 1993, supra). Cells were seeded in 384-well plates using a Zymark Sciclone ALH, treated with each compound in triplicate at 4 μg/mL in the primary screen for two days, washed with phosphate-buffered saline on a Packard Minitrak with a 384-well washer and incubated for four hours with 0.7 μg/mL calcein (Molecular Probes). Total fluorescence intensity in each well was recorded on a Packard Fusion platereader, and converted to a percent inhibition of signal by subtracting the instrument background and dividing by the average signal obtained when cells were not treated with any compound.
# (§3) Compounds to be retested were purchased from manufacturers. Stocks were prepared in DMSO at a concentration of 1 mg/ml in 384-well polypropylene plates with a 16-point, two-fold dilution dose curve of each compound in a column, in duplicates. Column 1-2 and 23-24 were left empty for controls. Daughter retest plates were prepared from stock retest plate by diluting 66.6 fold in DMEM in 384-well deep-deep well plates (4.5 μl transfer into 300 μl). Cells were seeded at a density of 6000 per well in 40 μl, and 20 μl was added from a daughter retest plate. The plates were incubated for two days at 37° C. with 5% CO2.
# (§4) Mean RFU (relative fluorescence units) for untreated cells was calculated by averaging columns 1, 2, and 23 (wells with cells but lacking compounds). The calcein background was calculated by averaging column 24 (wells with calcein, but lacking cells). Percentage inhibition of each well was calculated as [1−(RFU−calcein control)/(untreated cell−calcein control)*100]. Compounds causing at least 50% inhibition of calcein staining in the primary screen were tested for selectivity towards BJ-TERT/LT/ST/RAS^V12 engineered tumor cells by testing in BJ primary and BJ-TERT/LT/ST/RAS^V12 cells at a range of concentrations. Selective compounds were retested in all engineered cell lines.
# TIP5/TERT/LT cells = tested on: TIP5/TERT/LT cells
# From the text: as §1, §2, §3, §4
# TIP5/TERT/E6/E7/ST cells = tested on: TIP5/TERT/E6/E7/ST cells
# From the text: as §1, §2, §3, §4
# [2] = tested on: BJ-TERT/LT/RAS^V12/ST cells
# From the text: as §1, §2, §3, §4
# TIP5/TERT cells = tested on: TIP5/TERT cells
# From the text: as §1, §2, §3, §4
# [3] = tested on: TIP5/TERT/E6/E7/ST/RAS^V12 cells
# From the text: as §1, §2, §3, §4
# [4] = tested on: TIP5/TERT/LT/ST/RAS^V12 cells
# From the text: as §1, §2, §3, §4
# BJ primary cells = tested on: BJ primary cells
# From the text: as §1, §2, §3, §4
# TIP5/TERT/E6/E7 cells = tested on: TIP5/TERT/E6/E7 cells
# From the text: as §1, §2, §3, §4
smiles,measurement,setting,value
Cc1c2ccccc2c(CSC(=N)N)c2ccccc12.Cl [NSC146109],IC50 BJ-TERT/LT/ST/Ras^v12,[1],2.5 µg/mL
same,IC50 BJ-TERT/LT/ST,BJ-TERT/LT/ST cells,2.5 µg/mL
same,IC50 TIP5-TERT/LT,TIP5/TERT/LT cells,>5 µg/mL
same,IC50 TIP5-TERT/E6E7/ST,TIP5/TERT/E6/E7/ST cells,2.5 µg/mL
same,IC50 BJ-TERT/LT/Ras^v12/ST,[2],2.5 µg/mL
same,IC50 TIP5-TERT,TIP5/TERT cells,>5 µg/mL
same,IC50 TIP5-TERT/E6E7/ST/Ras^v12,[3],2.5 µg/mL
same,IC50 TIP5-TERT/LT/ST/Ras^v12,[4],2.5 µg/mL
same,IC50 BJ,BJ primary cells,>5 µg/mL
same,IC50 TIP5-TERT/E6E7,TIP5/TERT/E6/E7 cells,2.5 µg/mL
